Measured values reported in PubChem BioAssay AID1963966 (Molecular Pharmacology Branch, DTP, NCI, 2024).

Tested on: 935938-334-R-J1-PDC spheroids with HUVEC/MSC, viability
Assay: Anticancer human tumor 935938-334-R-J1-PDC patient-derived small intestine adenocarcinoma cell line growth inhibition [PI3K]
Details: for IC50: curve of first compound; for viability, T/C: stronger effect = lower value
Summary of the method: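 We assembled tumor spheroids that included a stromal compartment of HUVEC and MSCs, then exposed them to targeted agents alone and together with PI3K pathway inhibitors. Concentration series descended by half-log from clinically achievable Cmax levels. Viability served as the endpoint.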

[1] = second compound 0.00316 µM, first compound 0.0316 µM
[2] = second compound 0.00316 µM, first compound 0.1 µM
[3] = second compound 0.00316 µM, first compound 0.316 µM
[4] = second compound 0.00316 µM, first compound 1 µM
[5] = second compound 0.00316 µM, first compound 3.16 µM
[6] = second compound 0.00316 µM, first compound 10 µM
[7] = second compound 0.01 µM, first compound 0.0316 µM
[8] = second compound 0.01 µM, first compound 0.1 µM
[9] = second compound 0.01 µM, first compound 0.316 µM
[10] = second compound 0.01 µM, first compound 1 µM
[11] = second compound 0.01 µM, first compound 3.16 µM
[12] = second compound 0.01 µM, first compound 10 µM
[13] = second compound 0.0316 µM, first compound 0.0316 µM
[14] = second compound 0.0316 µM, first compound 0.1 µM
[15] = second compound 0.0316 µM, first compound 0.316 µM
[16] = second compound 0.0316 µM, first compound 1 µM
[17] = second compound 0.0316 µM, first compound 3.16 µM
[18] = second compound 0.0316 µM, first compound 10 µM
[19] = second compound 0.1 µM, first compound 0.0316 µM
[20] = second compound 0.1 µM, first compound 0.1 µM
[21] = second compound 0.1 µM, first compound 0.316 µM
[22] = second compound 0.1 µM, first compound 1 µM
[23] = second compound 0.1 µM, first compound 3.16 µM
[24] = second compound 0.1 µM, first compound 10 µM
[25] = second compound 0.316 µM, first compound 0.0316 µM
[26] = second compound 0.316 µM, first compound 0.1 µM
[27] = second compound 0.316 µM, first compound 0.316 µM
[28] = second compound 0.316 µM, first compound 1 µM
[29] = second compound 0.316 µM, first compound 3.16 µM
[30] = second compound 0.316 µM, first compound 10 µM
[31] = second compound 1 µM, first compound 0.0316 µM
[32] = second compound 1 µM, first compound 0.1 µM
[33] = second compound 1 µM, first compound 0.316 µM
[34] = second compound 1 µM, first compound 1 µM
[35] = second compound 1 µM, first compound 3.16 µM
[36] = second compound 1 µM, first compound 10 µM
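Also: compound exposure lasted seven days before viability was read.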
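For viability, T/C in this document: percent of vehicle DMSO treated spheroid viability so 100% = untreated.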

C#Cc1c(F)ccc2cc(O)cc(-c3ncc4c(N5CC6CCC(C5)N6)nc(OCC56CCCN5CC(F)C6)nc4c3F)c12 (stereo not drawn) + CC(Nc1ccc2c(c1)OCCn1cc(N3C(=O)OCC3C(F)F)nc1-2)C(N)=O
IC50 (second compound 0.00316 µM): 3790 nM
IC50 (second compound 0.01 µM): 3110 nM
IC50 (second compound 0.0316 µM): 1870 nM
IC50 (second compound 0.1 µM): 922 nM
IC50 (second compound 0.316 µM): 513 nM
IC50 (second compound 1 µM): 102 nM
viability, T/C [1]: 86.7%
viability, T/C [2]: 88.4%
viability, T/C [3]: 76%
viability, T/C [4]: 67.9%
viability, T/C [5]: 52.8%
viability, T/C [6]: 36.1%
viability, T/C [7]: 106%
viability, T/C [8]: 74%
viability, T/C [9]: 80.1%
viability, T/C [10]: 69.1%
viability, T/C [11]: 52%
viability, T/C [12]: 31.1%
viability, T/C [13]: 94.7%
viability, T/C [14]: 80.1%
viability, T/C [15]: 83.2%
viability, T/C [16]: 61.3%
viability, T/C [17]: 39.7%
viability, T/C [18]: 28.8%
viability, T/C [19]: 89.1%
viability, T/C [20]: 84.1%
viability, T/C [21]: 47.5%
viability, T/C [22]: 56.7%
viability, T/C [23]: 39.7%
viability, T/C [24]: 28.2%
viability, T/C [25]: 67.6%
viability, T/C [26]: 71%
viability, T/C [27]: 60.7%
viability, T/C [28]: 34.7%
viability, T/C [29]: 31.3%
viability, T/C [30]: 22.8%
viability, T/C [31]: 49.5%
viability, T/C [32]: 51.2%
viability, T/C [33]: 47.5%
viability, T/C [34]: 35.2%
viability, T/C [35]: 25%
viability, T/C [36]: 17.2%

CC1(C)CCC(Nc2ncc(C(F)(F)F)c(-c3c[nH]c4c(P(C)(C)=O)c(C#N)ccc34)n2)CN1 (stereo not drawn) + CC(Nc1ccc2c(c1)OCCn1cc(N3C(=O)OCC3C(F)F)nc1-2)C(N)=O
IC50 (second compound 0.00316 µM): < 31.6 nM
IC50 (second compound 0.01 µM): < 31.6 nM
IC50 (second compound 0.0316 µM): < 31.6 nM
IC50 (second compound 0.1 µM): < 31.6 nM
IC50 (second compound 0.316 µM): < 31.6 nM
IC50 (second compound 1 µM): < 31.6 nM
viability, T/C [1]: 46.2%
viability, T/C [2]: 35%
viability, T/C [3]: 29.9%
viability, T/C [4]: 33.8%
viability, T/C [5]: 25.8%
viability, T/C [6]: 7.62%
viability, T/C [7]: 42.7%
viability, T/C [8]: 36.3%
viability, T/C [9]: 27.2%
viability, T/C [10]: 28.6%
viability, T/C [11]: 30.4%
viability, T/C [12]: 5.01%
viability, T/C [13]: 42.5%
viability, T/C [14]: 40.5%
viability, T/C [15]: 33.8%
viability, T/C [16]: 27.1%
viability, T/C [17]: 35.5%
viability, T/C [18]: 6.2%
viability, T/C [19]: 36.8%
viability, T/C [20]: 39.5%
viability, T/C [21]: 30%
viability, T/C [22]: 29.6%
viability, T/C [23]: 31.3%
viability, T/C [24]: 4.61%
viability, T/C [25]: 37.5%
viability, T/C [26]: 29.5%
viability, T/C [27]: 27.2%
viability, T/C [28]: 29.2%
viability, T/C [29]: 23.1%
viability, T/C [30]: 6.76%
viability, T/C [31]: 29.5%
viability, T/C [32]: 24%
viability, T/C [33]: 24.7%
viability, T/C [34]: 22.9%
viability, T/C [35]: 18.3%
viability, T/C [36]: 3.56%

CNC(=O)c1ccc(N2C(=S)N(c3ccc(C#N)c(C(F)(F)F)c3)C(=O)C2(C)C)cc1F + CC(Nc1ncnc2nc[nH]c12)c1cc2cccc(Cl)c2c(=O)n1-c1ccccc1
IC50 (second compound 0.0316 µM): > 10000 nM
IC50 (second compound 0.1 µM): > 10000 nM
IC50 (second compound 0.316 µM): > 10000 nM
IC50 (second compound 1 µM): > 10000 nM
IC50 (second compound 3.16 µM): > 10000 nM
IC50 (second compound 10 µM): > 10000 nM
viability, T/C [13]: 102%
viability, T/C [14]: 94.8%
viability, T/C [15]: 136%
viability, T/C [16]: 85.2%
viability, T/C [17]: 78.2%
viability, T/C [18]: 133%
viability, T/C [19]: 98.1%
viability, T/C [20]: 84.4%
viability, T/C [21]: 102%
viability, T/C [22]: 90%
viability, T/C [23]: 81.3%
viability, T/C [24]: 84.7%
viability, T/C [25]: 100%
viability, T/C [26]: 72.2%
viability, T/C [27]: 95.3%
viability, T/C [28]: 83.6%
viability, T/C [29]: 95%
viability, T/C [30]: 65.4%
viability, T/C [31]: 97.4%
viability, T/C [32]: 83.9%
viability, T/C [33]: 70.8%
viability, T/C [34]: 69.7%
viability, T/C [35]: 96%
viability, T/C [36]: 73.5%
viability, T/C (second compound 3.16 µM, first compound 0.0316 µM): 72.8%
viability, T/C (second compound 3.16 µM, first compound 0.1 µM): 91.4%
viability, T/C (second compound 3.16 µM, first compound 0.316 µM): 103%
viability, T/C (second compound 3.16 µM, first compound 1 µM): 99.9%
viability, T/C (second compound 3.16 µM, first compound 3.16 µM): 61%
viability, T/C (second compound 3.16 µM, first compound 10 µM): 81.8%
viability, T/C (second compound 10 µM, first compound 0.0316 µM): 80.8%
viability, T/C (second compound 10 µM, first compound 0.1 µM): 92%
viability, T/C (second compound 10 µM, first compound 0.316 µM): 72.3%
viability, T/C (second compound 10 µM, first compound 1 µM): 71.6%
viability, T/C (second compound 10 µM, first compound 3.16 µM): 75.3%
viability, T/C (second compound 10 µM, first compound 10 µM): 63.9%

Cn1cnc2c(F)c(Nc3ccc(Br)cc3Cl)c(C(=O)NOCCO)cc21 + CC(Nc1ncnc2nc[nH]c12)c1cc2cccc(Cl)c2c(=O)n1-c1ccccc1
IC50 (second compound 0.0316 µM): 68.7 nM
IC50 (second compound 0.1 µM): 110 nM
IC50 (second compound 0.316 µM): 78.4 nM
IC50 (second compound 1 µM): 81.4 nM
IC50 (second compound 3.16 µM): 30.5 nM
IC50 (second compound 10 µM): 51.5 nM
viability, T/C (second compound 0.0316 µM, first compound 0.00949 µM): 82.2%
viability, T/C (second compound 0.0316 µM, first compound 0.03 µM): 63.5%
viability, T/C (second compound 0.0316 µM, first compound 0.0949 µM): 43.2%
viability, T/C (second compound 0.0316 µM, first compound 0.3 µM): 34.5%
viability, T/C (second compound 0.0316 µM, first compound 0.949 µM): 27.5%
viability, T/C (second compound 0.0316 µM, first compound 3 µM): 21.8%
viability, T/C (second compound 0.1 µM, first compound 0.00949 µM): 76%
viability, T/C (second compound 0.1 µM, first compound 0.03 µM): 71.7%
viability, T/C (second compound 0.1 µM, first compound 0.0949 µM): 47.4%
viability, T/C (second compound 0.1 µM, first compound 0.3 µM): 38.2%
viability, T/C (second compound 0.1 µM, first compound 0.949 µM): 30.9%
viability, T/C (second compound 0.1 µM, first compound 3 µM): 20.8%
viability, T/C (second compound 0.316 µM, first compound 0.00949 µM): 73.5%
viability, T/C (second compound 0.316 µM, first compound 0.03 µM): 70.4%
viability, T/C (second compound 0.316 µM, first compound 0.0949 µM): 41.4%
viability, T/C (second compound 0.316 µM, first compound 0.3 µM): 35.4%
viability, T/C (second compound 0.316 µM, first compound 0.949 µM): 22.3%
viability, T/C (second compound 0.316 µM, first compound 3 µM): 20%
viability, T/C (second compound 1 µM, first compound 0.00949 µM): 73.9%
viability, T/C (second compound 1 µM, first compound 0.03 µM): 65.6%
viability, T/C (second compound 1 µM, first compound 0.0949 µM): 47.7%
viability, T/C (second compound 1 µM, first compound 0.3 µM): 30.9%
viability, T/C (second compound 1 µM, first compound 0.949 µM): 26.2%
viability, T/C (second compound 1 µM, first compound 3 µM): 22.6%
viability, T/C (second compound 3.16 µM, first compound 0.00949 µM): 51%
viability, T/C (second compound 3.16 µM, first compound 0.03 µM): 56.6%
viability, T/C (second compound 3.16 µM, first compound 0.0949 µM): 38.6%
viability, T/C (second compound 3.16 µM, first compound 0.3 µM): 30.6%
viability, T/C (second compound 3.16 µM, first compound 0.949 µM): 27.4%
viability, T/C (second compound 3.16 µM, first compound 3 µM): 16%
viability, T/C (second compound 10 µM, first compound 0.00949 µM): 65.2%
viability, T/C (second compound 10 µM, first compound 0.03 µM): 59.6%
viability, T/C (second compound 10 µM, first compound 0.0949 µM): 39.4%
viability, T/C (second compound 10 µM, first compound 0.3 µM): 25.6%
viability, T/C (second compound 10 µM, first compound 0.949 µM): 22.6%
viability, T/C (second compound 10 µM, first compound 3 µM): 17.6%
